Reference: patent publication US9951060B2, “2-acylaminothiazole derivative or salt thereof” (ASTELLAS PHARMA INC., priority 2014, dated 2018)
Read-outs that look alike come from different tables or passages of the source.

What was measured:
[1] = target: T1, human c-Mpl-introduced Ba/F3 cell (Homo sapiens, UniProt P40238); conditions: disclosed in Table 1 of Patent Document 1 (WO 2005/007651); cited from earlier work
T1 construct: expressed in transfected cells
T1 sequence (P40238 26-635): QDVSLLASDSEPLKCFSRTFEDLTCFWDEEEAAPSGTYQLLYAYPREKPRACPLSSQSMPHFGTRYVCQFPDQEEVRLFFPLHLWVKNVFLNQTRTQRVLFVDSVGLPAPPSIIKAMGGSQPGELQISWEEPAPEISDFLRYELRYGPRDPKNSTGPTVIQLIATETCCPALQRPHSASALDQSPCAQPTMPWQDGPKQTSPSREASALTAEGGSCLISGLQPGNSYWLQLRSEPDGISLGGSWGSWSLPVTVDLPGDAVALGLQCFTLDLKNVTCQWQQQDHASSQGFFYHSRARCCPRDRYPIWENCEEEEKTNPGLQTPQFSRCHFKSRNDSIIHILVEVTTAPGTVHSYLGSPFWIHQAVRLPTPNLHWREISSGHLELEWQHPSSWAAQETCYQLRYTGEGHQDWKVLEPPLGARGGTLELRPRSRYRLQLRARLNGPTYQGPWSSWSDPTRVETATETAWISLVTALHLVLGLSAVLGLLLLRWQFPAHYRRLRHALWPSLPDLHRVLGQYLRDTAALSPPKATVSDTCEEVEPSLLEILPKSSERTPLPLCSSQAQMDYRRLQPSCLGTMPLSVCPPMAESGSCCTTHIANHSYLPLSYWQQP

[2] = target: T1, human c-Mpl-introduced Ba/F3 cell; assay: Test Example 2: human c-Mpl-introduced Ba/F3 cell proliferative activity; assay type: cell-based; conditions: concentration exhibiting 30% proliferation; 100% = positive control (Example 315 of Patent Document 1) at 1 μM
Procedure: Test Example 2: Evaluation of Human c-Mpl-Introduced Ba/F3 Cell Proliferative Activity
The human c-Mpl-introduced Ba/F3 cell proliferation action was measured by the following method.
As a positive control, 1-(5-{[4-(4-chlorothiophen-2-yl)-5-{[(2R)-2-methylpyrrolidin-1-yl]methyl}-1,3-thiazol-2-yl]carbamoyl}-3-fluoropyridin-2-yl)piperidine-4-carboxylic acid hydrochloride disclosed as Example 315 in Patent Document 1, represented by the formula (A1) above, was used. Further, it is known that the compound has a good human c-Mpl-introduced Ba/F3 cell proliferative activity as disclosed in Table 1 in Patent Document 1.
a) Construction of Vector Expressing Human c-Mpl Receptor
A human c-Mpl receptor gene (GenBank Accession No.: M90102.1) was transfected into an expression vector pEF-BOS (Nucleic Acids Research, 18: pp 5322 (1990)).
b) Construction of Cell Stably Expressing Human c-Mpl Receptor
A vector expressing a human c-Mpl receptor was introduced into a Ba/F3 cell (RIKEN BRC: RCB0805). For the introduction, an electroporation method was used. pEF-BOS-c-mpl (10 μg), pSV2bsr (1 μg, Kaken Pharmaceutical Co., Ltd.) and 1×10^7 of Ba/F3 cells were put into cuvettes with a gap width of 0.4 cm and electroporated under a condition of 1.5 kV (25 μF) in a Gene Pulser (registered trademark) (BioRad). The cells were incubated in an RPMI-1640 medium supplemented with a 0.5% WEHI conditioned medium (BD Biosciences) and 10% fetal bovine serum for 3 days, and thereafter, and the cells were incubated for 30 days in an RPMI-1640 medium, to which 10 μg/mL blasticidin had been further added, thereby acquiring a drug-resistant clone.
c) Measurement of Cell Proliferative Activity
The cells obtained in b) above were dispensed into an RPMI-1640 medium supplemented with a 0.5% WEHI conditioned medium and 10% fetal bovine serum, and used. The day before the experiment, the test substances (final concentration of 100 nM to 10 μM) which had been dissolved in a medium for assay (an RPMI-1640 medium supplemented with 10% fetal bovine serum) were added to a 384-well plate (Model No. 781185, Greiner bio-one). The cells after the medium had been replaced with the medium for assay were dispensed to a 384-well plate to which the test substance had been added, to 1×10^4 cells/well, and incubated overnight at 37° C. and 5% CO2. On the experiment day, a solution of a Cell counting kit (Dojindo Laboratories) was added to each well of the 384-well plate, and the cells were incubated for about 5 hours at 37° C. and 5% CO2. Thereafter, the absorbance (an absorbance wavelength of 450 nm) of each well was measured using Safire^2 (registered trademark) (TECAN), and used as an index for the number of cells. Further, as a negative control, a well to which the test substances had not been added was prepared.
By taking the absorbance of the well to which the test substance had been not added as 0% and taking the absorbance in a case where the positive control had been added to a final concentration of 1 μM as 100%, a cell proliferation rate (%) was calculated from the absorbance of the well to which the test substance had been added.

[3] = target: T2, human muscarinic M3 receptor (Homo sapiens, UniProt P20309); assay: Test Example 1: muscarinic M3 receptor positive allosteric modulator activity (shift of carbachol concentration-response curve, intracellular Ca2+, FLIPR); conditions: carbachol EC50 without / with test substance, CHO-K1 cells expressing human M3
T2 sequence (P20309 whole entry): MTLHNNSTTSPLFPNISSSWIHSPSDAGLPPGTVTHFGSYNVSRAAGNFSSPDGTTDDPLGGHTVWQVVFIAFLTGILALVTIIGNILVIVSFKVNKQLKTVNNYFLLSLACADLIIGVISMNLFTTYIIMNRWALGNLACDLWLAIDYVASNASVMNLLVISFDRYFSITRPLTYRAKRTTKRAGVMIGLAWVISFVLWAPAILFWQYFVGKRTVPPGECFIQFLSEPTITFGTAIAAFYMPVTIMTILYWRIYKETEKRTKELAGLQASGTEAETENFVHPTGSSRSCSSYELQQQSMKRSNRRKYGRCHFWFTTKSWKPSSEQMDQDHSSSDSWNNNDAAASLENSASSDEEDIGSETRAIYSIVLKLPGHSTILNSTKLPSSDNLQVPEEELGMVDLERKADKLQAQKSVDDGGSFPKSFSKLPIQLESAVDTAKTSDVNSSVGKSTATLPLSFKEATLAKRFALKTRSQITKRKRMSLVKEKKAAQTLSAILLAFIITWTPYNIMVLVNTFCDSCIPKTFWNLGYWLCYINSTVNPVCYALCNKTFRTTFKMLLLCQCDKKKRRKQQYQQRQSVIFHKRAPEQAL
From the text: (§1) Test Example 1: Evaluation of Muscarinic M3 Receptor Positive Allosteric Modulator Activity
(§2) a) Construction of Vector Expressing Human Muscarinic M3 Receptor
(§3) A human muscarinic M3 receptor gene (GenBank Accession No.: NM_000740.2) was introduced into an expression vector pcDNA3.1™ (Life Technologies).
(§4) b) Construction of Cells Stably Expressing Human Muscarinic M3 Receptor
(§5) A vector expressing a human muscarinic M3 receptor was introduced into a CHO—K1 cell (ATCC No.: CCL-61). The introduction was carried out according to the attached instructions, using a transfection reagent, Lipofectoamine (registered trademark) 2000 Reagent (Life Technologies). The cells were incubated in an alpha Modified Eagle Minimum Essential Medium (α-MEM) including 2 mM glutamine, 10% fetal bovine serum, and 2.0 mg/mL Geneticin (registered trademark) (Life Technologies) for 4 weeks to acquire a drug-resistant clone.
(§6) c) Measurement of Intracellular Ca^2+ Concentration
(§7) The cells obtained in b) above were suspended in an α-MEM including 2 mM glutamine, 10% fetal bovine serum, and 0.2 mg/mL Geneticin (registered trademark) to the amount from 1.2 to 1.5×10^4 cells/well the day before the experiment, dispensed into a 384-well plate (Model No. 355962, BD Biosciences), and incubated overnight at 37° C. and 5% CO2. The medium was replaced with a loading buffer (an assay buffer (Hank's balanced salt solution (HBSS), 1 g/L BSA, 20 mM HEPES (pH 7.5), and 2.5 mM probenecid), including 3.1 μM Fluo 4-AM (Dojindo Laboratories) and incubated for about 2 hours at room temperature. Thereafter, the cells were washed with a plate washer ELx405™ (BIO-TEK Instrument, Inc.) set with the assay buffer, and set in an intracellular Ca^2+ concentration measuring system (FLIPR^tetra (registered trademark), Molecular Device Co.). The test substances (final concentration of 1 μM or 10 μM) and carbachol (Sigma, final concentration of 0.0024 nM to 10 μM) which had each been dissolved in the assay buffer in advance were set in a FLIPR^tetra (registered trademark). The test substances were added to the cells in the device and after about 5 minutes, carbachol was added to the cells. An increase rate of the intracellular Ca^2+ concentration by carbachol was measured (excitement wavelength of 470 nm to 495 nm and a fluorescence wavelength of 515 nm to 575 nm).
(§8) For the muscarinic M3 receptor-positive allosteric modulator activity, a shift toward a lower concentration side of a carbachol concentration-response curve by the test substance was used as an index. […] For example, when the EC50 value of carbachol in the absence of the test substance was 0.1 μM and the EC50 value of carbachol in the presence of the test substance was 0.01 μM, the value of the muscarinic M3 receptor-positive allosteric modulator activity becomes 10, showing that the test substance causes a 10-fold shift in the EC50 value toward to the low concentration side.

[4] = target: T2, human muscarinic M3 receptor
From the text: as §1, §2, §3, §4, §5, §6, §7, §8

SMILES	EC30 value of c-Mpl-introduced Ba/F3 cell proliferation action [1] [µM]	human c-Mpl-introduced Ba/F3 cell proliferative activity EC30 [2] [µM]	muscarinic M3 receptor-positive allosteric modulator activity, 1 μM (-fold shift) ([3]; test substance 1 μM)	muscarinic M3 receptor-positive allosteric modulator activity, 10 μM (-fold shift) ([3]; test substance 10 μM)	muscarinic M3 receptor-positive allosteric modulator activity, 1 μM (-fold shift) [4]	muscarinic M3 receptor-positive allosteric modulator activity, 10 μM (-fold shift) [4]
C[C@@H]1CCCN1Cc1sc(NC(=O)c2cnc(N3CCC(C(=O)O)CC3)c(F)c2)nc1-c1cc(Cl)cs1.Cl [Example 315, 1-(5-{[4-(4-chlorothiophen-2-yl)-5-{[(2R)-2-methylpyrrolidin-1-yl]methyl}-1,3-thiazol-2-yl]carbamoyl}-3-fluoropyridin-2-yl)piperidine-4-carboxylic acid hydrochloride]	0.0032	–	–	–	–	–
Cc1cc(-c2nc(NC(=O)c3cnc(N4CCN(CCC(=O)[O-])CC4)cn3)sc2CN2CCCC[C@H]2C)cc(C(F)(F)F)c1.[Na+] [Example 4, sodium 3-(4-{5-[(5-{[(2R)-2-methylpiperidin-1-yl]methyl}-4-[3-methyl-5-(trifluoromethyl)phenyl]-1,3-thiazol-2-yl)carbamoyl]pyrazin-2-yl}piperazin-1-yl)propanoate]	–	>3	25 -fold shift	200 -fold shift	–	–
C[C@@H]1CC[C@@H](C)N1Cc1sc(NC(=O)c2cnc(N3CCN(CCC(=O)O)[C@@H](C)C3)cn2)nc1-c1cc(Cl)cs1 [Example 126]	–	>10	–	–	79 -fold shift	318 -fold shift
C[C@@H]1CCCN1Cc1sc(NC(=O)c2cnc(N3CCN(CCC(=O)O)CC3)cn2)nc1-c1ccc(C2CC2)c(C(F)(F)F)c1 [Example 63]	–	>10	–	–	39 -fold shift	186 -fold shift
C[C@@H]1CCCN1Cc1sc(NC(=O)c2cnc(N3CCN(CCC(=O)O)CC3)cn2)nc1-c1cc(Br)cc(C(F)(F)F)c1 [Example 27]	–	>10	–	–	31 -fold shift	330 -fold shift
COc1c(F)cc(-c2nc(NC(=O)c3cnc(N4CCN(CCC(=O)O)C[C@@H]4C)cn3)sc2CN2CCC[C@H]2C)cc1C(F)(F)F [Example 91]	–	>10	–	–	19 -fold shift	139 -fold shift
CC[C@@H]1CCCN1Cc1sc(NC(=O)c2cnc(N3CCN(CCC(=O)O)CC3)cn2)nc1-c1cc(C2CC2)cc(C(F)(F)F)c1 [Example 69]	–	>10	–	–	27 -fold shift	177 -fold shift
C[C@@H]1CCCN1Cc1sc(NC(=O)c2cnc(N3CCN(CCC(=O)O)C[C@@H]3C)cn2)nc1-c1cc(C(F)(F)F)cs1 [Example 100]	–	3.2	–	–	82 -fold shift	229 -fold shift
C[C@@H]1CN(c2cnc(C(=O)Nc3nc(-c4cc(Cl)cs4)c(CN(C)CC4CC4)s3)cn2)CCN1CCC(=O)O [Example 130]	–	>10	–	–	95 -fold shift	151 -fold shift
CCN(Cc1sc(NC(=O)c2cnc(N3CCN(CCC(=O)O)CC3)cn2)nc1-c1cc(F)cc(C(F)(F)F)c1)C(C)C [Example 106]	–	>10	–	–	41 -fold shift	270 -fold shift
